Measurements published in patent US7875625B2, “Cyclohepta[b]pyridine-3-carbonylguanidine derivative and pharmaceutical product containing same” (Toa Eiyo Ltd., priority 2005, dated 2011).

What was measured:
[1] = Metabolic stability test in rat (generation of control compound in plasma); assay type: in vivo; details: male SD rats
Source text: The compound represented by Formula (1) of the present invention has a structure in which the hydroxyl group on the 9-position of a 9-hydroxymethyl-cyclohepta[b]pyridine-3-carbonylguanidine derivative is converted to a specific substituent. However, if the compound is metabolized in vivo to remove the specific substituent from the compound, there may be generated the original 9-hydroxymethyl-cyclohepta[b]pyridine-3-carbonylguanidine derivative, which has toxic effects on the central nervous system. Thus, the inventive compounds as synthesized in Examples were administered in vivo to study whether the control compound, which was the corresponding 9-hydroxymethyl product, was generated.
Male SD rats (7 weeks old) were administered at 1 mg/kg (an amount calculated excluding salts) of the control compound, an equivalent amount of the Inventive Compound 2, 4, 6, 7 or 12, or Reference Compound 20, through the tail vein. After administration, about 0.2 mL of blood samples were collected after 5, 15, 30, 60 and 120 minutes, and the blood samples were centrifuged at 4° C. at a speed of rotation of 15000 for 15 minutes, thus to separate the supernatant plasma. The concentration of the control compound in the plasma was measured by LC/MS/MS. The measurement results were shown as +++ when the detected plasma concentration of the control compound is 200 ng/mL or greater; ++ for more than 100 ng/mL and less than 200 ng/mL; + for more than 20 ng/mL and less than 100 ng/mL; and − for less than 20 ng/mL or no detection.

Beagle dogs = experiment: Toxicity test after 4-days repeated intravenous administration in beagle dogs; assay type: in vivo, dog; details: equivalent of 30 mg/kg control compound intravenously once a day for 4 days
Procedure: With one male and one female dogs in each group, 30 mg/kg of the Control Compound dissolved in physiological saline (an amount calculated excluding salts), or an equivalent amount of the Inventive Compound 2, 4, 6 or 8 was repeatedly administered intravenously once a day for 4 days, and general symptom observation and pharmacological histopathologic examination were performed.

Na^+/H^+ exchanger (NHE) = target: T1, Na^+/H^+ exchanger (NHE) (Rattus norvegicus, UniProt P26431); experiment: NHE inhibitory effect test (swelling of rat platelets induced by sodium propionate); assay type: cell-based; details: rat platelet-rich plasma, sodium propionate buffer pH 6.7; 300 μM Amiloride taken as 100% inhibition; Probit method
T1 construct: from tissue; host or cells: platelet-rich plasma from Wistar rat blood
T1 sequence (P26431 whole entry): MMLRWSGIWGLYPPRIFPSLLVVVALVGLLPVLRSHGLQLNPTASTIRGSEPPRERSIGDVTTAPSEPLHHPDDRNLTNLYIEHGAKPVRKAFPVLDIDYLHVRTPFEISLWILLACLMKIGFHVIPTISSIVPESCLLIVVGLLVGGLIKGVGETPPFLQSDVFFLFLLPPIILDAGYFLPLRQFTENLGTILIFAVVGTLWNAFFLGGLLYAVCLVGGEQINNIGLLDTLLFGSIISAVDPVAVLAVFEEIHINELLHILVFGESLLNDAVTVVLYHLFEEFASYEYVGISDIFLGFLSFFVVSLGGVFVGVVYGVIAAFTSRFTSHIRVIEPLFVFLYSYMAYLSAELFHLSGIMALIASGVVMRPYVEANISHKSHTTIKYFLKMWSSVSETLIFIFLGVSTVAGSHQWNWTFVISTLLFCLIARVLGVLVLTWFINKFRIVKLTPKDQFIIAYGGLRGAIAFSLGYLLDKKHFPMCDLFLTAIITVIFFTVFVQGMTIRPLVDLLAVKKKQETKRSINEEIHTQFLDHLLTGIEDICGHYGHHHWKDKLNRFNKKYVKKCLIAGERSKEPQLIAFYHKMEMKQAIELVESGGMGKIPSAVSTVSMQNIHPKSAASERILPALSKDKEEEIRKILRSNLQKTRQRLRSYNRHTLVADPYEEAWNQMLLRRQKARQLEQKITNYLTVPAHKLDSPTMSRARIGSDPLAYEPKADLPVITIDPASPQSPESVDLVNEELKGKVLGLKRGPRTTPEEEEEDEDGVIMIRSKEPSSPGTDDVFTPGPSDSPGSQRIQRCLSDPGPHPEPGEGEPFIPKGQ
Procedure: The NHE inhibitory activity was measured according to the method by Scholz et al. [British Journal of Pharmacology, Vol. 109, p. 562-568 (1993)], taking the swelling of rat platelets induced by sodium propionate as an index.
Under etherization, blood was collected (8 mL) from the abdominal aorta of a Wistar rat, and 1 mL of a citrate dextrose solution as an anticoagulant was added. The blood sample was immediately centrifuged at 90×g for 10 minutes, and then the collected supernatant was taken as platelet-rich plasma. Subsequently, to 250 μL of a 140 mM sodium propionate buffer solution containing the test compound dissolved in dimethylsulfoxide (pH 6.7, final dimethylsulfoxide concentration 1%), the platelet-rich plasma prepared in the above (number of platelet; 10×10^6/50 μL) was added, and the decrease in the absorbance associated with the swelling of platelets was measured over time with a Hematracer (NKK Corp.).
The rate of decrease in the absorbance at 20 seconds after the addition of the platelet-rich plasma was taken as the NHE activity, and the inhibitory activity of the respective compounds was expressed as a relative activity, while the action obtained upon addition of 300 μM of Amiloride was taken as 100% inhibition.
In addition, the test results were obtained by calculating the concentration at which the inhibitory activity of the test compound becomes 50% (IC50 value), by a Probit method.

male mice = experiment: Toxicity test with 2-days repeated intraperitoneal administration in mouse; assay type: in vivo; details: equivalent of 300 mg/kg control compound intraperitoneally once a day for 2 days
Procedure: For three male mice in each group, 300 mg/kg of the Control Compound (an amount calculated excluding salts), or an equivalent amount of the Inventive Compound 2, 4, 6, 7 or 12 were intraperitoneally administered once a day for 2 days, and a histopathological tests were performed. The Control Compound, and the Inventive Compounds 2, 4 and 6 were suspended in a 0.5% tragacanth gum solution, and the Inventive Compound 7 was suspended in a 10 DMSO-containing 0.5% tragacanth gum solution, while the Inventive Compound 12 was suspended in olive oil. For the histopathological test, in order to make a more thorough examination of central nervous toxicity, the brain was examined after whole body was subjected to perfusion fixation with a 4% formaldehyde in neutral phosphate buffer as a fixing solution using a liquid transporting pump under pentobarbital sodium anesthesia.

[2] = system: reperfusion-induced arrhythmia upon myocardial ischemia; experiment: Reperfusion-induced arrhythmia inhibitory action test; assay type: in vivo, rat; details: male SD rats, 3.62 mmol/L, 1 mL/kg intravenous, within 10 minutes after reperfusion
Procedure: Subsequently, in evaluation of the in vivo NHE inhibitory action, the effect of the test compound on reperfusion-induced arrhythmia upon myocardial ischemia was evaluated according to the method of Aihara et al. [European Journal of Pharmacology, Vol. 404, p. 221-229 (2000)]. Under anesthesia using pentobarbital sodium (60 mg/kg, intraperitoneal administration), cannulae were inserted into trachea, femoral vein and carotid artery of male SD rats ([…]) for artificial ventilation, drug administration and blood pressure measurement, respectively. The blood pressure was measured using a strain pressure amplifier via a pressure transducer, while the heart rate was measured from the blood pressure pulse wave using a cardiotachometer. Furthermore, an electrocardiogram (lead II) was measured from the electrodes attached to each four limbs. Next, under artificial ventilation, left thoracotomy was performed and a snare (5-0 nylon) was loosely placed around a blood vessel which was about 3 mm apart from the origin of the left coronary artery. Thereafter, it was confirmed that arrhythmia was not occurred for 10 minutes, and then the snare was fastened to induce local myocardial ischemia. Furthermore, after 4 minutes of myocardial ischemia, the compound was intravenously administered for 1 minute, and after 5 minutes of myocardial ischemia, the snare was loosened, then the arrhythmia occurred after reperfusion was recorded and analyzed with an arrhythmia analyzer (Softron Co., Ltd.), thereby the anti-arrhythmic action of the compound was evaluated. […] The control group was administered with physiological saline.
With regard to the ventricular fibrillation (Vf) which occurred within 10 minutes after reperfusion (in the cases of halfway death, up to the time point where cardiac arrest was confirmed), arrhythmia analysis was performed according to the Guidelines for Lambeth Convention [Cardiovascular research, Vol. 22, p. 447-455, 1988], and evaluation was made in terms of the frequency of Vf occurrence, cumulative duration time of Vf, and the mortality.
The frequency of Vf occurrence, cumulative duration of Vf, and the mortality for the respective test compounds are presented in Table 2.

[3] = Comparative test for transferability to the brain in rat; assay type: in vivo; details: male SD rats, 50 mg/kg via tail vein
Procedure: To male SD rats (6 weeks old), the Control Compound or the Inventive Compound 2 was administered through the tail vein in an amount of 50 mg/kg. After administration, whole blood samples were collected over time from the abdominal aorta under etherization, and the brain tissues were extracted immediately. The brain tissues were lightly washed off to remove the blood attached around with physiological saline, and subsequently the tissues were frozen in liquid nitrogen and preserved at −30° C. until analyzed. The blood was centrifuged at 4° C. at a rotation speed of 15000 for 15 minutes to separate the supernatant plasma, and was preserved at −30° C. until analyzed. The brain tissues were thawed by standing at ambient temperature, and then the wet weight was measured. Distilled water was added in an amount five times of the wet weight, and a suspension was prepared using a Polytron homogenizer. The measurement of the test compound concentration in the plasma and the brain tissues was performed by LC/MS/MS. The transferability of the drug to the brain was calculated by dividing the drug concentration in the brain tissues by the plasma concentration obtained at the same time.

Structure (SMILES): Cc1nc2c(cc1C(=O)NC(=N)N)CCCCC2COS(=O)(=O)[O-].[Na+] (stereo not drawn) [Inventive Compound 2, 3-Guanidinocarbonyl-2-methyl-6,7,8,9-tetrahydro-5H-cyclohepta[b]pyridin-9-ylmethyl sulfate sodium salt]
- Plasma concentration of the control compound, after 5 min ([1]; equivalent of 1 mg/kg control compound via tail vein, LC/MS/MS, 5 min): − (− for less than 20 ng/mL or no detection)
- Plasma concentration of the control compound, after 15 min ([1]; equivalent of 1 mg/kg control compound via tail vein, LC/MS/MS, 15 min): − (− for less than 20 ng/mL or no detection)
- Plasma concentration of the control compound, after 30 min ([1]; equivalent of 1 mg/kg control compound via tail vein, LC/MS/MS, 30 min): − (− for less than 20 ng/mL or no detection)
- Plasma concentration of the control compound, after 60 min ([1]; equivalent of 1 mg/kg control compound via tail vein, LC/MS/MS, 60 min): − (− for less than 20 ng/mL or no detection)
- Plasma concentration of the control compound, after 120 min ([1]; equivalent of 1 mg/kg control compound via tail vein, LC/MS/MS, 120 min): − (− for less than 20 ng/mL or no detection)
- Decomposition into the Control Compound in vivo (in words) ([1]; tail vein, plasma 5-120 min): not detected at any time point
- General condition (symptom observation) (Beagle dogs): only vomiting was recognized
- Pathologic examination of the brain (Beagle dogs): any histologic finding which could be caused by drug administration was not recognized
- IC50 (Na^+/H^+ exchanger (NHE)): 143 nM
- Histopathological finding in the brain (male mice): any histologic finding which could be caused by drug administration was not recognized
- Cumulative duration of Vf [2]: 13.7 s
- Frequency of Vf occurrence [2]: 40%
- Mortality [2]: 20%
- Transferability to the brain tissues (in words) ([3]; compared with the Control Compound): decreased transferability to the brain tissues
- Kp at 15 min ([3]; rat, brain/plasma, intravenous, 15 min, read-out: Concentration Intracerebral/Plasma, after 15 min): 0.29
